Reference: US12083084B2, “Method for enhancing energy production and metabolism in cells” (REPLICON HEALTH OY, priority 2013, dated 2024)
Values joined by “and” are separate entries in the source; they are usually repeats but may differ in a detail not shown here. Equal entries are not always repeated.

Legend:
[1] = 4.5 day acute test, wide blood panel (Example 2.3.1); assay type: in vivo, human; details: for increased level of blood triglycerides: 4.5 day test
Method: In earlier in vivo experiments (Example 2.1 and 2.2) the last DGAcs was taken in previous night. In this Example the last dose was double in size (=some 10 mg/kg), and it was taken in the same morning as the collection of blood samples. Higher than “normal” therapeutic dose and short time to blood measurement was chosen in order to see a clearer dose response compared to zero control. On top of very wide blood panel, like in Examples 2.1 and 2.2, also gene expression analyses from peripheral leukocytes (Example 2.3.2 below), and concentration analyses from collected plasma samples (Example 2.3.3) was conducted. Also glucose tolerance test and related insulin measurements (Example 2.3.4 below) was conducted. By comparing results of subject 1 (S1) from Example 2.1 and in Example 2.3.1 (below), it is fairly straightforward to see that this “high dose and immediate response strategy” was efficient, and it produced even very important deviations in some parameters due to different administrations.
In this Example the 4 day experiment in Example 2.1 was extended into 4.5 day experiment by additional DGAcs dose in the morning before blood measurement. Same wide fasting blood panel consisting of 25 different metrics and full blood count was measured for all participants (sample analytics by United Medix Laboratories, Finland).
Two healthy volunteers (S1 and S9) and two (otherwise healthy) volunteers using statin medication (S10 and S11) were chosen for the experiment. The test set up was double blinded. S1 had participated in the earlier 4 day experiment (see Table 3 above and also to a 3 week pilot testing) and served as an important positive control on the efficacy of the DGAcs. Statin group on the other hand was chosen as some kind of a negative control because statins to some extend can possibly counter act the positive effects of the DGAcs and on the other hand also have similar health effects. Statins suppress mevalonate pathway by inhibiting HMG Coa reductase activity and also disturb balancing of cellular NADPH/NADP^+ levels (FIGS. 3b and 4). […] Statin treatment group was not expected to yield positive results but possibly vice versa. For S10 the statin dose was halved two weeks before the test from 20 mg to 10 mg (Simvastatin). For S11 statin treatment was kept at 20 mg per day (also Simvastatin).

[2] = Glucose tolerance test, plasma glucose and insulin; assay type: in vivo, human; details: 4.5 day experiment
Method: In the 4.5 day experiment also standard, fasting glucose tolerance test was conducted for S1 and S9 starting after 2.5 hours of last administration of DGAcs. Blood glucose levels were measured at 0 h, 60 min and 120 minutes.

[3] = tested on: Mitochondria of Primary Rat Cortical Neurons; assay: Mitochondrial Ca2+-uptake in rat cortical neurons (fluorescent imaging); assay type: cell-based; details: 50 ug/ml for 24 h, N = 3
Method: Fluorescent imaging. Imaging experiments were performed at 7 DIV. The cells were loaded with fluorescent dyes (fura4F, fura-ff and rhodamine 123) in cell culture medium at 37° C. 1 h, 5 μM for each dye. Then cells were washed with Mg^2+-free Locke's buffer containing 1.3 mM Ca^2+, moved to the microscope stage, and imaging was performed at room temperature. […] For delayed calcium deregulation experiments a lower affinity Ca^2+-indicator FuraFF (Kd 5.5 μM) was used to avoid a saturation of the signal.
In this study a zero control and one DGAcs group of primary rat cortical neurons was cultivated normally without DGAcs until 6 DIV, and then the DGAcs group was treated with 50 μg/ml DGAcs for 24 hours. After that culture medium was replaced by Mg^2+-free Locke's buffer containing 50 μg/ml DGAcs and imaging experiments were performed at room temperature at 7 DIV.
50 μM NMDA in the presence of 10 μM glycin in Mg^2+-free buffer was used to stimulate the cells.
For complete mitochondrial depolarization and release of Ca^2+ accumulated in mitochondria 2 μM protonophore FCCP was used in the presence of NMDA-receptors inhibitor MK801 (2 μM).

[4] = Rate of ethanol oxidation in rats; assay type: in vivo, rat; details: AA rats given ethanol (1.2 per mille), not statistically significant
Excerpt: In this experiment nutrition intake, except of course for DGAcs, was controlled to be exactly the same during the experimental day, and three day before the experiment. For AA rats, that are used to alcohol but didn't receive any alcohol in 3 day before the experiment, catabolic redox-activity in the cytosol was controlled by giving rats ethanol (equaling 1.2 per mille blood alcohol concentration, which represents only mild alcohol intoxication to the AA rats). The rate of ethanol oxidation remained the same in all groups.
Experimental session started at 8:00 to 9:00 am. To diminish possible pain during the experiments, all animals were injected subcutaneously with buprenorphine (0.01 mg/kg) a few minutes before the blood samples. During the experimental session no difference in other metabolic activity, e.g. rate of ethanol oxidation, between the control and treatment group was detected from blood samples. […] The resulting supernatants were used for free glycerol measurement with an enzymatic end point commercial assay kit (Boehringer-Mannheim, R-Biopharm, Darmstadt, Germany) according to the manufacturer's protocol except that the assays were modified for use with small volumes of supernatant using a 96-well microplate reader (Labsystems Multiskan RS, Helsinki, Finland). […]

[5] = tested on: ethanol-dosed gastric cells; details: in vitro; cited from earlier work
[6] = 4.5 day, 5 mg/kg twice a day, last dose 10 mg/kg, 2.5 hours after last dose, healthy males S1 and S9, fasting blood, vs 0-control

## O.O.O=C([O-])[C@H](O)CO.O=C([O-])[C@H](O)CO.[Ca+2] [DGAcs, D-glyceric acid, calcium salt dehydrate]
[1]; [6]
  HDL, 4.5 day change: 1% and −1%
  S-Afos, 4.5 day change: 8% and 12%
  S-Alb, 4.5 day change: 5% and 10%
  S-Amyl, 4.5 day change: −5% and −3%
  S-Cal, 4.5 day change: 4% and 3%
  S-LDH, 4.5 day change: −4% and −7%
  S-Mg, 4.5 day change: 5% and 0%
  S-Na, 4.5 day change: 1%
  S-Uraat, 4.5 day change: 4% and −1%
  fS-Gluk, 4.5 day change: −2% and 4%
  fS-Krea, 4.5 day change: 3% and 9%
  fS-Transf, 4.5 day change: 5% and 8%
  fS-Trigly, 4.5 day change: −3% and −5%
[1]; S1, 4.5 day test
  blood LDH declined: 4%
  blood urea decline: 7%
  creatine kinase (S-CK) declined: 14%
[1]; S1, 4.5 day test (zero control 1.32)
  AST/ALT (ratio) after treatment: 0.96
[1]; S10, statin group (Simvastatin 10 mg)
  increased level of blood triglycerides: +83.5%
[1]; S11, statin group (Simvastatin 20 mg)
  increased level of blood triglycerides: +25.6%
[2]; S1 (starting level 5.0 mmol/L), 75 g glucose
  drop of blood glucose at 120 min: marginal
[2]; S9 (fasting blood glucose 6.0 mmol/L), 75 g glucose
  blood glucose lower at 120 min compared to the control: ~0.6 mmol/L
[2]; S9, 75 g glucose
  blood insulin level at 60 minutes: higher insulin level
[3]; 2 μM FCCP + MK801 (complete mitochondrial depolarization)
  Average Ca release, FCCP: 0.475 *)
[3]; 50 μM NMDA
  Average Ca release, peak NMDA: 0.219
[3]
  Average Ca release, baseline Ca: 0.070
[4]
  rate of ethanol oxidation, maximum acceleration compared to control: ~3.6%

## O=C(O)[C@H](O)CO [DGA, D-glyceric acid]
[5]
  viability of ethanol-dosed gastric cells: increase viability
